Assay results as given in paper PMC4471902, “Block of NMDA receptor channels by endogenous neurosteroids: implications for the agonist induced conformational states of the channel vestibule” (Scientific Reports, 2015).

What was measured:
[1] = target: T1, GluN1(T648A)/GluN2B receptors (Rattus norvegicus, UniProt P35439+Q00960, T648A); test: Whole-cell patch-clamp of GluN1(T648A)/GluN2B receptor responses in HEK293 cells; type: cell-based; settings: for sensitivity of spontaneous currents (absence of glutamate and glycine) to antagonist: 100 μM
T1 construct: expressed in transfected cells; host or cells: HEK293
Excerpt: (§1) Human embryonic kidney (HEK293) cells were transfected with expression vectors containing: GluN1–1a (GenBank accession number U08261)[52]; GluN2B (GenBank accession number M91562); GluN1-4a(F484A), (generous gift from Dr. J. J. Woodward)[53] (Smothers & Woodward, 2009); GluN3A (generous gift from Dr. S. A. Lipton)[54] (GenBank accession number NM_138546); GluN1ΔN with deleted 354 amino acids in the NTD (32 to 386); GluN1ΔC with an introduced stop codon in 838 of the CTD GluN2BΔN) with deleted 354 amino acids in the NTD (32 to 386); GluN2BΔC with an introduced stop codon in 844 of the CTD[55]; GluR0 (GenBank accession number Synechocystis PCC 6803) (generous gift from Dr. M. L. Mayer)[18]; and green fluorescent protein (GFP) (pQBI 25, Takara, Tokyo, Japan) genes, as described previously. The Quick-Change site-directed mutagenesis kit (Agilent Technologies, Santa Clara, CA, USA) was used to generate specific point mutations in the M1/M3 region according to the manufacturer’s instructions using manually designed primers purchased from Sigma. Modified DNA plasmids were transformed into competent XL10-Gold E.coli cells, positive clones were selected, and isolated DNA was sequenced. […] All mutations were verified by DNA sequencing (Macrogen, Seoul, Korea or SeQme, Dobris, Czech Republic). The amino acids are numbered according to the full-length protein, including the signal peptide, with the initiating methionine as 1.
(§2) Experiments were performed 24–48 hrs after transfection on cells transfected with GluN1/GluN2B/GFP plasmids. Whole-cell voltage-clamp recordings from HEK293 cells were made with a patch-clamp amplifier (Axopatch 200B; Axon Instruments, Inc., Foster City, CA) after a capacitance and series resistance (<10 MΩ) compensation of 80–90%.
(§3) Patch pipettes (3–5 MΩ) were filled with a solution containing (in mM): 120 gluconic acid, 15 CsCl, 10 BAPTA, 10 HEPES, 3 MgCl2, 1 CaCl2, and 2 ATP-Mg salt (pH-adjusted to 7.2 with CsOH). When GluR0 receptor responses were studied, intracellular solution contained (in mM): 120 gluconic acid, 15 KCl, 10 BAPTA, 10 HEPES, 3 MgCl2, 1 CaCl2, and 2 ATP-Mg salt (pH-adjusted to 7.2 with KOH). Extracellular solution (ECS) contained the following (in mM): 160 NaCl, 2.5 KCl, 10 HEPES, 10 glucose, 0.2 EDTA, and 0.7 CaCl2 (pH-adjusted to 7.3 with NaOH). Glycine (10 μM), an NMDAR co-agonist, was present in the control and test solutions. All (PA-S and PA-A) solutions were made from freshly prepared 20 mM PA-S and 5 mM PA-A stock in dimethyl sulfoxide (DMSO). The final dilution to ECS was made at 50 °C and followed by 1 min sonication (SONOREX DIGITEC DT 100/H, BADELIN electronic, Berlin, Germany). The same concentration of DMSO was added to all extracellular solutions. Drug applications were made with a microprocessor-controlled multibarrel fast-perfusion system. Changes in the glutamate-induced current in HEK293 cells transfected by GluN1/GluN2B subunits were used to estimate the rate of solution exchange around the cell. Standard ECS was switched to the ECS diluted by water (50%) during glutamate application. The osmolarity was adjusted by sucrose to match the standard ECS. Glutamate (1 mM), glycine (10 μM) and pH was maintained constant in both solutions. The solution exchange rate was estimated to be τ = 4.3 ± 0.3 ms (n = 6) for lifted cells and τ = 12.0 ± 0.9 ms (n = 6) for the attached cells.
The IC50 was determined from a single dose of a steroid using the formula [drawing 1] where I is the relative degree of inhibition and [steroid] is the steroid concentration used. Calculations of IC50 were made assuming 100% inhibition at saturating steroid concentration this is valid for both PA-S and PA-A[12][13]. […]

[2] = target: T2, GluN1/GluN2B receptors (Rattus norvegicus, UniProt P35439+Q00960); test: Whole-cell patch-clamp of GluN1/GluN2B receptor responses in transfected HEK293 cells; type: cell-based
T2 construct: expressed in transfected cells; host or cells: HEK293
Excerpt: as §1, §2, §3
Experiments were performed at room temperature (21–25 °C). Data were collected (low-pass filtered at 2 kHz and sampled at 10 kHz) and analyzed using pClamp 10 (Molecular Devices). Unless otherwise mentioned, error bars represent SEM; statistical comparison of groups was performed using Student’s t-test (p < 0.05 was used to determine the significance).
The IC50 was determined from a single dose of a steroid using the formula [drawing 1] where I is the relative degree of inhibition and [steroid] is the steroid concentration used. […]

[3] = target: T3, GluN1(A649T)/GluN2B receptors (Rattus norvegicus, UniProt P35439+Q00960, A649T); test: Whole-cell patch-clamp of GluN1(A649T)/GluN2B receptor responses in HEK293 cells; type: cell-based
T3 construct: expressed in transfected cells; host or cells: HEK293
Excerpt: as §1, §2
(§4) Patch pipettes (3–5 MΩ) were filled with a solution containing (in mM): 120 gluconic acid, 15 CsCl, 10 BAPTA, 10 HEPES, 3 MgCl2, 1 CaCl2, and 2 ATP-Mg salt (pH-adjusted to 7.2 with CsOH). […]

[4] = target: T2, GluN1/GluN2B receptors; parameters: method as in PMID 22188257; settings: from −60 to +60 mV; cited from earlier work
[5] = target: T4, GluN1(V656A)/GluN2B receptors (Rattus norvegicus, UniProt P35439+Q00960, V656A); test: Whole-cell patch-clamp of GluN1(V656A)/GluN2B receptor responses in HEK293 cells; type: cell-based
T4 construct: expressed in transfected cells; host or cells: HEK293
Excerpt: as §1, §2, §4

[6] = PA-A 20 μM, fit to the Boltzmann equation
[7] = PA-A 20 μM, fit to the Boltzmann equation, read-out: Kd(0 mV)

T3 sequence (Q00960 27-1482, other chains not shown): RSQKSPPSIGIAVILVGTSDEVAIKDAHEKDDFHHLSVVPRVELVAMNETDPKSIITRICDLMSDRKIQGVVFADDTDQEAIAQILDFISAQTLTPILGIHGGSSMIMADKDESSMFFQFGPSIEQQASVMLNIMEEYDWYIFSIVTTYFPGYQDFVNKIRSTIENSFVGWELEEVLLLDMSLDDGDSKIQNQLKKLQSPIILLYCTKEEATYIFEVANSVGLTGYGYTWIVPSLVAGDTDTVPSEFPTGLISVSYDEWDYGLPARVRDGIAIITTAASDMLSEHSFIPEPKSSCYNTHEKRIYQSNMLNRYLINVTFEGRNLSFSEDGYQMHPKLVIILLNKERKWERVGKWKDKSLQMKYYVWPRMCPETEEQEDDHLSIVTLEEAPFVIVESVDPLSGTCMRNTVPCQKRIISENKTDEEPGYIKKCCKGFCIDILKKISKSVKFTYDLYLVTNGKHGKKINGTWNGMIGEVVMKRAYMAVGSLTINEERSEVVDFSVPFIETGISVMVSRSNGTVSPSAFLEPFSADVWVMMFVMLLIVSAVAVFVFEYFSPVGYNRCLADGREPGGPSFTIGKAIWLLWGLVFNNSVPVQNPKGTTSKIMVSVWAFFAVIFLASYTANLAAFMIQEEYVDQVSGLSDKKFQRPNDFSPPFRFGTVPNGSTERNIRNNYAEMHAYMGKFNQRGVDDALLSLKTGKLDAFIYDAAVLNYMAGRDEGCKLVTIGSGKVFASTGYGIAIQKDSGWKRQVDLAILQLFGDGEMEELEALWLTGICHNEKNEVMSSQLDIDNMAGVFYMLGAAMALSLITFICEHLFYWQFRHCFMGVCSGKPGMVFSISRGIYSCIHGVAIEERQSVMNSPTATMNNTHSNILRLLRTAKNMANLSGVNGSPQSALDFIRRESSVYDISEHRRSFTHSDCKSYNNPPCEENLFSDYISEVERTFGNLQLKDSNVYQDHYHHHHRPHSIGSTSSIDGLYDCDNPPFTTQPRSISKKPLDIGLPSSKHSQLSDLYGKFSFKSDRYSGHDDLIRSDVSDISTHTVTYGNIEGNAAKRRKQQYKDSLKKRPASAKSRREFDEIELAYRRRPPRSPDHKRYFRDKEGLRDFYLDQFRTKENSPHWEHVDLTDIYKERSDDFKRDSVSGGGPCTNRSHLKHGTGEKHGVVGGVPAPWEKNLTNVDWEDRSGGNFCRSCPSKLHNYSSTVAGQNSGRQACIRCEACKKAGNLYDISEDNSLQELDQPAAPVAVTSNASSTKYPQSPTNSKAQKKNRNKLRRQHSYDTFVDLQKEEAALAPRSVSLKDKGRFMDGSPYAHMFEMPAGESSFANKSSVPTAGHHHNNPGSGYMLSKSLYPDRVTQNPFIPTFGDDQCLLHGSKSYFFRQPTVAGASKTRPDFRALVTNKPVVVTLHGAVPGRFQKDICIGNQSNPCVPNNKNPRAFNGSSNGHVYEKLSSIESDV
T2 sequence (Q00960 27-1482, other chains not shown): as above
T4 sequence (Q00960 27-1482, other chains not shown): as above

Row | Compound | sensitivity of spontaneous currents (absence of glutamate and glycine) to antagonist [1] | voltage dependence of steroid inhibition [1] | δ (apparent electrical distance of the binding site) [1, 6] | Kd [1, 7] [µM] | voltage dependence of steroid inhibition ([2]; WT GluN1/GluN2B) | δ (apparent electrical distance of the binding site) ([2]; WT, PA-A 20 μM, fit to the Boltzmann equation) | Kd ([2]; WT, PA-A 20 μM, fit to the Boltzmann equation, read-out: Kd(0 mV)) [µM] | mode of inhibition ([2]; dependence on receptor activation by agonists) | voltage dependence of steroid inhibition [3] | δ (apparent electrical distance of the binding site) [3, 6] | Kd [3, 7] [µM] | voltage dependence of inhibition [4] | voltage dependence of steroid inhibition [5] | δ (apparent electrical distance of the binding site) ([5]; fit to the Boltzmann equation) | Kd ([5]; fit to the Boltzmann equation, read-out: Kd(0 mV)) [µM]
1 | O=C(O)c1cc(O)c2ccc(Cl)cc2n1 [7-CKA, 7-Cl-kynurenic acid, reference compound] | only moderately sensitive | – | – | – | – | – | – | – | – | – | – | – | – | – | –
2 | N[C@H](CCCP(=O)(O)O)C(=O)O [D-AP5, D-amino-5-phosphonopentanoic acid, reference compound] | only moderately sensitive | – | – | – | – | – | – | – | – | – | – | – | – | – | –
3 | CC(=O)C1CCC2C3CC[C@@H]4C[C@H](OC(=O)C[N+](C)(C)C)CC[C@]4(C)C3CC[C@]12C (stereo partly drawn) [PA-A, 5β-pregnan-20-on 3α-yl-[(2-trimethylammonio)-ethanoate]] | – | strongly voltage dependent | 0.29 | 340 | weak voltage dependence | 0.15 | 335 | use-dependent | intermediate voltage dependence | 0.23 | 745 | voltage independent | intermediate voltage dependence | 0.19 | 193
